By IC50 is commonly meant the concentration at which inhibition is half-maximal.

From patent US8022206B2 (OSI Pharmaceuticals, LLC, priority 2008, dated 2011) come the findings set out here.

One experiment deals with RON (human) (Homo sapiens, UniProt Q04912). As to the kind of experiment: RON (human) AlphaScreen kinase assay, Km of ATP. Particulars: AlphaScreen, Km of ATP; read-out: RON biochemical IC50. Format: biochemical. As to the method:
(§1) Someone skilled in the art will appreciate that a variety of assay formats may be used to determine the activity of the compounds of this invention. For example, AlphaScreen (Amplified Luminescent Proximity Homogeneous Assay) technology was used with the kinases described below. Assay ATP concentrations for individual kinases are included in the text.
Desired compound is added in a final concentration of 1% DMSO with control being vehicle of DMSO alone. […] Enzyme is added to initiate the reaction and incubated for 30 min at RT. In subdued light, appropriate amount of PT66 donor and acceptor beads (diluted 1:260 from manufacturer's provision in a 25 mM Tris HCl (pH=7.5), 200 mM NaCl, 100 mM EDTA, 0.3% BSA buffer) are added to the wells. The plates, incubated for 1 h, are read on an AlphaQuest plate reader.
(Alpha assays give light when donor and acceptor beads are brought close together.)

A further experiment concerns the target MET (human) (Homo sapiens, UniProt P08581). As to the kind of experiment: MET (human) AlphaScreen kinase assay, Km of ATP. The class given is biochemical. Particulars: AlphaScreen, Km of ATP; read-out: Met biochemical IC50. The method, then:
as §1
Desired compound is added in a final concentration of 1% DMSO with control being vehicle of DMSO alone. MET is diluted to the optimized concentration (optimized on a lot-by-lot basis) in an enzyme diluent buffer (50 mM Tris pH=7.4, 1% glycerol, 0.03% Brij35, 0.24 mM EGTA, 1 mM DTT, and 0.003% BSA). Enzyme is added to initiate the reaction and incubated for 60 min at RT. In subdued light, appropriate amount of PT66 donor and acceptor beads (diluted 1:260 from manufacturer's provision in a 25 mM Tris HCl (pH=7.5), 400 mM NaCl, 100 mM EDTA, 0.3% BSA buffer) are added to the wells. The plates, incubated for 1 h, are read on an AlphaQuest plate reader

Sequence of MET (human) (P08581 25-1390): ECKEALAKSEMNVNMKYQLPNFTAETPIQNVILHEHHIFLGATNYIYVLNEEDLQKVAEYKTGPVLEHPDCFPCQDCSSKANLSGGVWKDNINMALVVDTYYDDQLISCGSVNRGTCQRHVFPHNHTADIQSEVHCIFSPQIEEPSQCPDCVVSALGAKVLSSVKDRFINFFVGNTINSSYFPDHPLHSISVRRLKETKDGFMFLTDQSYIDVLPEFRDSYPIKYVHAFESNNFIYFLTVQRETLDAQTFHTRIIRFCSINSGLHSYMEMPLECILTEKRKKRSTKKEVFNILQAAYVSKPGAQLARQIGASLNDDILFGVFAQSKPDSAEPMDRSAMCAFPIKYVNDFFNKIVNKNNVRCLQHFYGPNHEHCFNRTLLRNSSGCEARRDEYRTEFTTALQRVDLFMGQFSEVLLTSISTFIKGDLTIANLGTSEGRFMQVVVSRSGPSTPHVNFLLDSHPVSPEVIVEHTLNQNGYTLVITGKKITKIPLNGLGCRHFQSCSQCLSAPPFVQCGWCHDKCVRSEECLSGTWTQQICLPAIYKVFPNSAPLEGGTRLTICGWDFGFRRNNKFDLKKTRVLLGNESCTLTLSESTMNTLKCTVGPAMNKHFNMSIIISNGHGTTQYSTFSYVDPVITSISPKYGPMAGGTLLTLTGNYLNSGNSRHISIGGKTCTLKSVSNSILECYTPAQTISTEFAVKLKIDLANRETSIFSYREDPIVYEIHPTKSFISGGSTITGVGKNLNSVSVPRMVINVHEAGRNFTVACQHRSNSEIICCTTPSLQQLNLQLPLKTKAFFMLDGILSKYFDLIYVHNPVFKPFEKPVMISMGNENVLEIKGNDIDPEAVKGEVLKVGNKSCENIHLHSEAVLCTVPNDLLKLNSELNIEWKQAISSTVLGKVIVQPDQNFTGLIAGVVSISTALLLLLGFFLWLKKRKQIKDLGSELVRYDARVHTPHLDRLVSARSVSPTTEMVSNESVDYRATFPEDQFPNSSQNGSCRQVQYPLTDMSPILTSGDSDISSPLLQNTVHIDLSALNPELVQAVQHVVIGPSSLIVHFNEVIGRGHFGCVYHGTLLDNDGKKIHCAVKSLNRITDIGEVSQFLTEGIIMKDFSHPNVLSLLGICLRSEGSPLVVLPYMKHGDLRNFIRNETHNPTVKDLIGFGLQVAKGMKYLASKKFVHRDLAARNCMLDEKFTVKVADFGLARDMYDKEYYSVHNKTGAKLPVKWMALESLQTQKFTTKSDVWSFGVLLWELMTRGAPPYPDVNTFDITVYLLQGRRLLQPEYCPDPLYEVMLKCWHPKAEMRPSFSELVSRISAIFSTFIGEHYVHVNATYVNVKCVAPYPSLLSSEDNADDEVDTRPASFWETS
Sequence of RON (human) (Q04912 25-1400): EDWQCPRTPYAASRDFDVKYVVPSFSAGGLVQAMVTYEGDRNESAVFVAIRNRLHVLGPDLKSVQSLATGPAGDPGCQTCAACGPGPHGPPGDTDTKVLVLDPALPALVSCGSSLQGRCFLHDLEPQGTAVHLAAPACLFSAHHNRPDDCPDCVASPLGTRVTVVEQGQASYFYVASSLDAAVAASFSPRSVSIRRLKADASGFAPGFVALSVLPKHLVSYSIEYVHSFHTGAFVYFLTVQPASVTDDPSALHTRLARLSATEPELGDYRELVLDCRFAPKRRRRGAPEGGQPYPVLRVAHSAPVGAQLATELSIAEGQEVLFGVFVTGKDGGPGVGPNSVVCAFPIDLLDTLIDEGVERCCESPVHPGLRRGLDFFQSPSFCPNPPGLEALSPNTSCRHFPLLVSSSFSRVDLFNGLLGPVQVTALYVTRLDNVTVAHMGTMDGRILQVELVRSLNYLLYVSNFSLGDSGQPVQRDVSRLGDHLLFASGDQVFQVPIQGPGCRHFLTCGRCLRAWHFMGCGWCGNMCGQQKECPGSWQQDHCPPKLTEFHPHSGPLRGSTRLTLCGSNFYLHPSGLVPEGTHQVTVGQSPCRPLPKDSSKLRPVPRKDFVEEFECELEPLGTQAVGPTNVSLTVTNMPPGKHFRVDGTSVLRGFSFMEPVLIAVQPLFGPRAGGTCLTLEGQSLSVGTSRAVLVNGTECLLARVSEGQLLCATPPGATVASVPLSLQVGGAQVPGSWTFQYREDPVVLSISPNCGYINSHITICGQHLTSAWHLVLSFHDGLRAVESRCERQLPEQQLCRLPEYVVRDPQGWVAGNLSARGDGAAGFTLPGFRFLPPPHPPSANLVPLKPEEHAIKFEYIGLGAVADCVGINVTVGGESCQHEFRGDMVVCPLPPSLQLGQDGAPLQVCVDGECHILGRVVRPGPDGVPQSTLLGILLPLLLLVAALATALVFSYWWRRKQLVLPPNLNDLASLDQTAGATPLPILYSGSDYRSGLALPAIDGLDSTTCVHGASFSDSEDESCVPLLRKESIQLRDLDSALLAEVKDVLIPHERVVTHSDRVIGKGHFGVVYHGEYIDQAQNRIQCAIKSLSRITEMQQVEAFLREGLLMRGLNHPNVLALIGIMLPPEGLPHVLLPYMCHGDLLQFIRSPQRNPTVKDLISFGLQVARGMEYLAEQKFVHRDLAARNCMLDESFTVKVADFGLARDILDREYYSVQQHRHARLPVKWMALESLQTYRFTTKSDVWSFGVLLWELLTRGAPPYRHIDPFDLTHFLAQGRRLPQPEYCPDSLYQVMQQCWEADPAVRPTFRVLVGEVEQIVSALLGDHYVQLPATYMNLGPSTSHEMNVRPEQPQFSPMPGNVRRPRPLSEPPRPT

`C[C@@H]1CN(C(=O)CN2CC=C(c3coc4c(O[C@H](C)c5c(Cl)ccc(F)c5Cl)c(N)ncc34)CC2)C[C@H](C)O1` (relative stereo) [Example 204, 2-(4-{6-Amino-7-[(R)-1-(2,6-dichloro-3-fluorophenyl)ethoxy]-furo[3,2-c]pyridin-3-yl}-3,6-dihydro-2H-pyridin-1-yl)-1-((2R*,6S*)-2,6-dimethylmorpholin-4-yl)ethanone]: the IC50 on RON (human) is 500 to 5000 nM; at MET (human) it was less than 500 nM.
`C[C@@H]1CN(C(=O)N2CC=C(c3coc4c(O[C@H](C)c5c(Cl)ccc(F)c5Cl)c(N)ncc34)CC2)C[C@H](C)N1C` (relative stereo) [Example 221, (4-{6-Amino-7-[(R)-1-(2,6-dichloro-3-fluorophenyl)ethoxy]-furo[3,2-c]pyridin-3-yl}-3,6-dihydro-2H-pyridin-1-yl)-((3R*,5S*)-3,4,5-trimethylpiperazin-1-yl)-methanone]: the IC50 at RON (human) and at MET (human) was less than 500 nM in each case.
In the case of `C[C@@H]1CN(C(=O)N2CC=C(c3coc4c(O[C@H](C)c5c(Cl)ccc(F)c5Cl)c(N)ncc34)CC2)C[C@H](C)N1` (relative stereo) [Example 224, (4-{6-Amino-7-[(R)-1-(2,6-dichloro-3-fluorophenyl)ethoxy]-furo[3,2-c]pyridin-3-yl}-3,6-dihydro-2H-pyridin-1-yl)-((3R*,5S*)-3,5-dimethylpiperazin-1-yl)methanone], the IC50 at RON (human) and on MET (human) was less than 500 nM throughout.
On to `C[C@@H]1CN(C(=O)c2ccc(-c3coc4c(O[C@H](C)c5c(Cl)ccc(F)c5Cl)c(N)ncc34)cc2)C[C@H](C)N1` (relative stereo) [Example 294, (4-{6-Amino-7-[(R)-1-(2,6-dichloro-3-fluorophenyl)ethoxy]furo[3,2-c]pyridin-3-yl}phenyl)-((3S*,5R*)-3,5-dimethylpiperazin-1-yl)methanone], for which the IC50 at RON (human) and on MET (human) was less than 500 nM throughout.
Regarding `C[C@@H](Oc1c(N)ncc2c(Br)coc12)c1c(Cl)ccc(F)c1Cl` [Example 2, 3-Bromo-7-[(R)-1-(2,6-dichloro-3-fluorophenyl)-ethoxy]-furo[3,2-c]pyridin-6-ylamine], the IC50 on RON (human) lay in the range of 5000 to 20000 nM; on MET (human) it was 500 to 5000 nM.
`C[C@@H](Oc1c(N)ncc2c(-c3cnn(C)c3)coc12)c1c(Cl)ccc(F)c1Cl` [Example 4, 7-[(R)-1-(2,6-Dichloro-3-fluorophenyl)-ethoxy]-3-(1-methyl-1H-pyrazol-4-yl)-furo[3,2-c]pyridin-6-ylamine]: the IC50 at RON (human) and at MET (human) was 500 to 5000 nM each time.
Turning to `C[C@@H](Oc1c(N)ncc2c(C3=CCN(C(=O)CN(C)C)CC3)coc12)c1c(Cl)ccc(F)c1Cl` [Example 9, 1-(4-{6-Amino-7-[(R)-1-(2,6-dichloro-3-fluorophenyl)ethoxy]-furo[3,2-c]pyridin-3-yl}-3,6-dihydro-2H-pyridin-1-yl)-2-dimethylaminoethanone], the half-inhibitory concentration (IC50) on RON (human) and at MET (human) was less than 500 nM throughout.
`C[C@@H](Oc1c(N)ncc2c(C3=CCN(C=O)CC3)coc12)c1c(Cl)ccc(F)c1Cl` [Example 10, 4-{6-Amino-7-[(R)-1-(2,6-dichloro-3-fluorophenyl)-ethoxy]-furo[3,2-c]pyridin-3-yl}-3,6-dihydro-2H-pyridine-1-carbaldehyde]: the IC50 at RON (human) and on MET (human) was less than 500 nM throughout.
`C[C@@H](Oc1c(N)ncc2c(C3=CCN(C(=O)c4ccccc4)CC3)coc12)c1c(Cl)ccc(F)c1Cl` [Example 11, (4-{6-Amino-7-[(R)-1-(2,6-dichloro-3-fluorophenyl)-ethoxy]-furo[3,2-c]pyridin-3-yl}-3,6-dihydro-2H-pyridin-1-yl)-phenylmethanone]: the IC50 at RON (human) and on MET (human) was 500 to 5000 nM throughout.
As to `C[C@@H](Oc1c(N)ncc2c(C3=CCN(C(=O)CN4CCCC4)CC3)coc12)c1c(Cl)ccc(F)c1Cl` [Example 13, 1-(4-{6-Amino-7-[(R)-1-(2,6-dichloro-3-fluorophenyl)-ethoxy]-furo[3,2-c]pyridin-3-yl}-3,6-dihydro-2H-pyridin-1-yl)-2-pyrrolidin-1-ylethanone], the IC50 at RON (human) and at MET (human) was less than 500 nM throughout.
In the case of `CCC(=O)N1CC=C(c2coc3c(O[C@H](C)c4c(Cl)ccc(F)c4Cl)c(N)ncc23)CC1` [Example 14, 1-(4-{6-Amino-7-[(R)-1-(2,6-dichloro-3-fluorophenyl)-ethoxy]-furo[3,2-c]pyridin-3-yl}-3,6-dihydro-2H-pyridin-1-yl)-propan-1-one], the IC50 was 500 to 5000 nM on RON (human) and less than 500 nM on MET (human).
On to `CC(C)C(=O)N1CC=C(c2coc3c(O[C@H](C)c4c(Cl)ccc(F)c4Cl)c(N)ncc23)CC1` [Example 15, 1-(4-{6-Amino-7-[(R)-1-(2,6-dichloro-3-fluorophenyl)-ethoxy]-furo[3,2-c]pyridin-3-yl}-3,6-dihydro-2H-pyridin-1-yl)-2-methylpropan-1-one], for which the IC50 on RON (human) and at MET (human) was 500 to 5000 nM each time.
For `C[C@@H](Oc1c(N)ncc2c(C3=CCN(C(=O)C4CCCCC4)CC3)coc12)c1c(Cl)ccc(F)c1Cl` [Example 16, (4-{6-Amino-7-[(R)-1-(2,6-dichloro-3-fluorophenyl)-ethoxy]-furo[3,2-c]pyridin-3-yl}-3,6-dihydro-2H-pyridin-1-yl)-cyclohexylmethanone], the 50% inhibitory concentration (IC50) on RON (human) and on MET (human) was 500 to 5000 nM in each case.
In the case of `C[C@@H](Oc1c(N)ncc2c(C3=CCN(C(=O)C4CCN(C)CC4)CC3)coc12)c1c(Cl)ccc(F)c1Cl` [Example 17, (4-{6-Amino-7-[(R)-1-(2,6-dichloro-3-fluorophenyl)-ethoxy]-furo[3,2-c]pyridin-3-yl}-3,6-dihydro-2H-pyridin-1-yl)-(1-methylpiperidin-4-yl)-methanone], the IC50 on RON (human) and at MET (human) was less than 500 nM throughout.
Take `C[C@@H](Oc1c(N)ncc2c(C3=CCN(C(=O)[C@@H]4CCCN4C)CC3)coc12)c1c(Cl)ccc(F)c1Cl` [Example 18, (4-{6-Amino-7-[(R)-1-(2,6-dichloro-3-fluorophenyl)-ethoxy]-furo[3,2-c]pyridin-3-yl}-3,6-dihydro-2H-pyridin-1-yl)-((S)-1-methylpyrrolidin-2-yl)-methanone]: the IC50 on RON (human) and on MET (human) was less than 500 nM in each case.
Consider `C[C@@H](Oc1c(N)ncc2c(C3=CCN(C(=O)C4(O)CC4)CC3)coc12)c1c(Cl)ccc(F)c1Cl` [Example 19, (4-{6-Amino-7-[(R)-1-(2,6-dichloro-3-fluorophenyl)-ethoxy]-furo[3,2-c]pyridin-3-yl}-3,6-dihydro-2H-pyridin-1-yl)-(1-hydroxycyclopropyl)-methanone], for which the IC50 at RON (human) and at MET (human) was 500 to 5000 nM each time.
In the case of `C[C@@H](Oc1c(N)ncc2c(C3=CCN(C(=O)CCCN(C)C)CC3)coc12)c1c(Cl)ccc(F)c1Cl` [Example 20, 1-(4-{6-Amino-7-[(R)-1-(2,6-dichloro-3-fluorophenyl)-ethoxy]-furo[3,2-c]pyridin-3-yl}-3,6-dihydro-2H-pyridin-1-yl)-4-dimethylaminobutan-1-one], the IC50 at RON (human) and on MET (human) was less than 500 nM in each case.
As for `C[C@@H](Oc1c(N)ncc2c(C3=CCN(C(=O)C4CCNCC4)CC3)coc12)c1c(Cl)ccc(F)c1Cl` [Example 21, (4-{6-Amino-7-[(R)-1-(2,6-dichloro-3-fluorophenyl)-ethoxy]-furo[3,2-c]pyridin-3-yl}-3,6-dihydro-2H-pyridin-1-yl)-piperidin-4-ylmethanone], the IC50 on RON (human) and at MET (human) was less than 500 nM each time.
Regarding `C[C@@H](Oc1c(N)ncc2c(C3=CCN(C(=O)[C@@H]4CCCN4)CC3)coc12)c1c(Cl)ccc(F)c1Cl` [Example 22, (4-{6-Amino-7-[(R)-1-(2,6-dichloro-3-fluorophenyl)ethoxy]furo[3,2-c]pyridin-3-yl}-3,6-dihydro-2H-pyridin-1-yl)-(S)-pyrrolidin-2-ylmethanone], the IC50 on RON (human) and at MET (human) was less than 500 nM each time.
Take `C[C@@H](Oc1c(N)ncc2c(C3=CCN(C(=O)C4(N)CC4)CC3)coc12)c1c(Cl)ccc(F)c1Cl` [Example 23, (1-Aminocyclopropyl)-(4-{6-amino-7-[(R)-1-(2,6-dichloro-3-fluorophenyl)-ethoxy]-furo[3,2-c]pyridin-3-yl}-3,6-dihydro-2H-pyridin-1-yl)-methanone]: the IC50 at RON (human) and on MET (human) was 500 to 5000 nM in each case.
For the molecule `C[C@@H](Oc1c(N)ncc2c(C3=CCN(C(=O)C(C)(C)N)CC3)coc12)c1c(Cl)ccc(F)c1Cl` [Example 24, 2-Amino-1-(4-{6-amino-7-[(R)-1-(2,6-dichloro-3-fluorophenyl)-ethoxy]-furo[3,2-c]pyridin-3-yl}-3,6-dihydro-2H-pyridin-1-yl)-2-methylpropan-1-one], the IC50 at RON (human) and on MET (human) was less than 500 nM throughout.
